Values quoted from earlier work as cited in US20190381137A1, “BOLAAMPHIPHILIC COMPOUNDS, COMPOSITIONS AND USES THEREOF” (Lauren Sciences LLC, priority 2012, published 2019).

Details: conjugate acid (protonated form) of the imidazole side chain

pKa: approximately 6.0
SMILES: N[C@@H](Cc1c[nH]cn1)C(=O)O [histidine]
